Several values for one entry are separate records, joined by “and”; a condition that tells them apart may be missing. Equal entries are not always repeated. Where two headings read alike, the source gives them in different places.
Experiments:
SARS-CoV-2 M^pro [1] = biological target: T1, SARS-CoV-2 M^pro (Severe acute respiratory syndrome coronavirus 2, UniProt P0DTD1); assay: Mpro substrate cleavage by gel electrophoresis (SDS-PAGE) and densitometry; format: biochemical; conditions: normalized gel densitometry data (red values of Figure 2D); read-out: IC50 against Mpro, gel electrophoresis and densitometry
SARS-CoV-2 M^pro [2] = biological target: T1, SARS-CoV-2 M^pro; assay: biochemical; parameters: inhibition: dose or concentration left out as unconfirmed; conditions: for inhibition: initial screen, Table S4; for IC50: normalized FRET data, technical duplicates, end-point about 4 h, read-out: IC50 against Mpro, FRET values; for inhibition of the activity of Mpro in secondary screen: re-screen at 100 μM
[3] = tested on: SARS-CoV-2 expressing the mNeon reporter gene; assay: microbe, parasite or virus in culture; format: cell-based; conditions: read-out: IC50 against SARS-CoV-2
[4] = biological target: ACE2-RBD binding (SARS-CoV-2 RBD / human ACE2-Fc) (Severe acute respiratory syndrome coronavirus 2, UniProt P0DTC2); assay: biochemical; conditions: for RMAX of ACE2-RBD binding: RBD pre-treated with 50 μM compound, DMSO only 0.3044; for ACE2-RBD binding versus inhibitor concentration (in words): RBD pre-treated with increasing concentrations; for inhibition at 50 µM: pre-treatment with 50 μM compound, from Rmax with vs without compound
in vitro = conditions: African green monkey
Mpro [5] = conditions: cited from earlier work
Mpro [6] = conditions: slightly shorter fluorogenic substrate; ref Li et al., 2020; read-out: IC50 as Mpro inhibitor (literature); cited from earlier work
VSV-SARS2 = assay: microbe, parasite or virus in culture; format: cell-based; conditions: for IC50: read-out: IC50 against VSV-SARS2; for inhibition at 10 µM: read-out: inhibition of VSV-SARS2 infection (efficacy)
[7] = read-out: Normalized Percent FRET inhibition
[8] = Severe acute respiratory syndrome coronavirus 2, Vero, 18 h
[9] = Vesicular stomatitis virus, Vero

Row | SMILES | IC50 (SARS-CoV-2 M^pro [1]) [µM] | inhibition (SARS-CoV-2 M^pro [2]; [7]) [%] | IC50 (SARS-CoV-2 M^pro [2]) | inhibition of the activity of Mpro in secondary screen (SARS-CoV-2 M^pro [2]) | IC50 [3, 8] [µM] | RMAX of ACE2-RBD binding [4] | ACE2-RBD binding versus inhibitor concentration (in words) [4] | inhibition at 50 µM [4] [%] | CC50 (in vitro) [µM] | also measured
1 | CN(C)[C@@H]1C(O)=C(C(N)=O)C(=O)[C@@]2(O)C(O)=C3C(=O)c4c(O)cccc4[C@@](C)(O)[C@H]3C[C@@H]12 [Tetracycline] | 38.2 | 40.3 | 20.8 µM | completely inhibit | – | – | – | – | – | –
2 | COc1ccc(-c2ccc3cc(C(=O)O)ccc3c2)cc1C12CC3CC(CC(C3)C1)C2 [Adapalene] | – | 0.236 | – | – | ~10 | 0.2322 | concentration-dependent decrease | 23.8 | 60.7 | IC50 [3]: 9.6 µM
3 | O=c1c2ccccc2[se]n1-c1ccccc1 [Ebselen] | – | – | – | – | – | – | – | – | – | Mpro inhibitor potency (literature, in words) (Mpro [5]): low micromolar; inhibition at 100 µM (SARS-CoV-2 M^pro [2]; [7]): 117%
4 | CCOc1nc2cccc(C(=O)OC(C)OC(=O)OC3CCCCC3)c2n1Cc1ccc(-c2ccccc2-c2nnn[nH]2)cc1 (stereo not drawn) [Candesartan Cilexetil] | 77.1 | 153 | ~67 µM and 67.4 µM | completely inhibit | ~10 | – | – | – | > 100 | IC50 [3]: 10.4 µM; IC50 (Mpro [6]): 2.8 µM
5 | Cc1cc2nc3c(=O)[nH]c(=O)nc-3n(C[C@H](O)[C@H](O)[C@H](O)COP(=O)(O)OP(=O)(O)OC[C@H]3O[C@@H](n4cnc5c(N)ncnc54)[C@H](O)[C@@H]3O)c2cc1C [Flavin Adenine Dinucleotide Disodium] | > 100 | 149 | 42.5 µM | completely inhibit | – | – | – | – | – | –
6 | C#C[C@]1(O)CC[C@H]2[C@@H]3CCC4=CC(=O)CCC4=C3C=C[C@@]21CC [Gestrinone] | – | – | – | – | – | 0.2366 | concentration-dependent decrease | 22 | – | –
7 | CS(=O)(=O)CCNCc1ccc(-c2ccc3ncnc(Nc4ccc(OCc5cccc(F)c5)c(Cl)c4)c3c2)o1 [Lapatinib] | – | – | – | – | 31.1 | 0.2344 | concentration-dependent decrease | 23 | 69.6 | IC50 (VSV-SARS2; [9]): < 10 µM; inhibition at 10 µM (VSV-SARS2; [9]): ≥ 50%; IC50 (VSV-SARS2): 7.1 µM
8 | CN(C)c1cc(NC(=O)CNC(C)(C)C)c(O)c2c1C[C@H]1C[C@H]3[C@H](N(C)C)C(O)=C(C(N)=O)C(=O)[C@@]3(O)C(O)=C1C2=O [Tigecycline] | 29 | 56.5 | 21.5 µM and 20.5 µM | completely inhibit | – | – | – | – | – | –
9 | C#Cc1cccc(Nc2ncnc3cc4c(cc23)OCCOCCOCCO4)c1 [Icotinib] | – | -0.628 | – | – | – | 0.2406 | concentration-dependent decrease | 21 | – | –
10 | Cc1ccc(NC(=O)c2ccc(CN3CCN(C)CC3)cc2)cc1Nc1nccc(-c2cccnc2)n1 [Imatinib] | – | – | – | – | – | – | – | – | – | inhibition at 10 µM (VSV-SARS2; [9]): ≥ 50%
